In patent US20090105261A1, “Novel substituted pyrazolo[1,5<I>A</I>]-1,3,5-Triazine derivatives and their analogues, pharmaceutical compositions containing same, use thereof as medicine and methods for preparing same” (GREENPHARMA, priority 2002, published 2009):
Each block holds one compound with its values, some of them ahead of it.

Columns and labels:
TNFα = TNFα in supernatants of LPS-activated venous blood mononuclear cells (PBMCs), EIA; assay type: cell-based; conditions: PBMC, LPS 1 μg/ml, 24 hours incubation
Procedure: The compounds according to the invention were evaluated for their anti-inflammatory properties on venous blood mononuclear cells (PBMCs). More particularly, the cells were incubated for 24 hours in the presence of the molecule tested, after activation with lipopolysaccharide (LPS) (1 μg/ml) according to the protocol described by Schindler, R., Mancilla, J., Endres, S., Ghorbani, R., Clark, S. C. and Dinarello, C. A. (Blood, 1990, 75, 40-47). After incubation, the TNFα concentrations were measured in the culture supernatants by the EIA method.

PDE1 (bovine) = assay: PDE1 inhibition (selectivity); assay type: biochemical; conditions: substrate [3H]cAMP+cAMP 1 μM, 30 minutes at 30° C.
Source text: (§1) cyclic nucleotide phosphodiesterases: PDE1 (bovine), PDE3 (human), PDE5 (human) and PDE6 (bovine), by following the methods described, respectively, by: (i, PDE1) Nicholson C. D., JACKMAN S. A. and WILKE R. (Brit. J. Pharmacol. 1989, 97, 889-897); (ii, PDE3 and PDE5) Weishaar, R. E., Burrows, S. D., Kobylarz, D. C., Quade, M. M. and Evans, D. B. (Biochem. Pharmacol., 1986, 35, 787-800); (iii PDE6) Ballard, A. S., Gingell, C. J., Tang, K., Turner, L. A., PRICE, M. E. (J. Urol, 1998, 159, 2164-2171). […] In the case of PDE5 and PDE 6, the substrate used is ([3H]cGMP+cGMP) at a concentration of 1 μM for PDE5 and 2 μM for PDE6. A quantitative measurement of the hydrolysis products [3H]-5′-AMP and [3H]-5′-GMP was determined by scintillation.

[1] = molecular target: T1, human phosphodiesterase type 2 (source: U-937 cells) (Homo sapiens, UniProt O00408); assay: PDE2 inhibition, [3H]cAMP hydrolysis, scintillation; assay type: biochemical; conditions: substrate [3H]cAMP+cAMP 1 μM, 30 minutes at 30° C.
T1 construct: human phosphodiesterase type 2 (source: U-937 cells); endogenous in cells; host or cells: U-937 cells
T1 sequence (O00408 whole entry): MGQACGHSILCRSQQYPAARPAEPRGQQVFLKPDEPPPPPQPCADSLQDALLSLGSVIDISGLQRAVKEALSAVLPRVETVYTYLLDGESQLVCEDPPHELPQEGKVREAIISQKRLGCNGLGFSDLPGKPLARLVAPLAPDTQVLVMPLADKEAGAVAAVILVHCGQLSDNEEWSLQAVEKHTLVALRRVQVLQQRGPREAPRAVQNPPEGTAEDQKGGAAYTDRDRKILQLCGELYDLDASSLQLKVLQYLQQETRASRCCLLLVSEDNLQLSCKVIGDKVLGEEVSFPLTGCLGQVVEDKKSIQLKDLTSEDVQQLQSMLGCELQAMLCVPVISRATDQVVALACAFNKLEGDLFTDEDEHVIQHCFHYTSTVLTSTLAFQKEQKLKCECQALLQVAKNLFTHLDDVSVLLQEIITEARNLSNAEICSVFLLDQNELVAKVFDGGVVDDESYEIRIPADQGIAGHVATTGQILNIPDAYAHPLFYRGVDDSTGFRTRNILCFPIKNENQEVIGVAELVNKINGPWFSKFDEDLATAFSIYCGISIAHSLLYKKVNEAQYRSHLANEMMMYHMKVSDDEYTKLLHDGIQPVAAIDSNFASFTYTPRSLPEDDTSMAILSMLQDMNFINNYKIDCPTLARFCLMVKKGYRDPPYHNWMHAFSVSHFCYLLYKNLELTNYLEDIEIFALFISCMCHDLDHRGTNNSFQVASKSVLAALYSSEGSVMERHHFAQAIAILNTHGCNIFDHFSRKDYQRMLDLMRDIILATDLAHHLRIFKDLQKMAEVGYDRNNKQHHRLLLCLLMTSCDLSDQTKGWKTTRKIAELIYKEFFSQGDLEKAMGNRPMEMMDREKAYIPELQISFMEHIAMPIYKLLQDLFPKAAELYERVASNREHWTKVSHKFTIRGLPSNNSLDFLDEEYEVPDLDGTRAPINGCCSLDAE
Procedure: This novel family of compounds was tested as an inhibitor of human phosphodiesterase type 2 (source: U-937 cells) by following the method described by Torphy, T. J., Zhou, H. L. and Cieslinski, L. B. (J. Pharmacol. Exp. Ther., 1992, 263, 1195-1205). […] A quantitative measurement of the hydrolysis product [3H]-5′-AMP was determined by scintillation.

PDE6 (bovine) = molecular target: T2, PDE6 (bovine) (Bos taurus, UniProt P11541+P23439); assay: PDE6 inhibition (selectivity); assay type: biochemical; conditions: substrate [3H]cGMP+cGMP 2 μM
T2 sequence (P11541 2-856): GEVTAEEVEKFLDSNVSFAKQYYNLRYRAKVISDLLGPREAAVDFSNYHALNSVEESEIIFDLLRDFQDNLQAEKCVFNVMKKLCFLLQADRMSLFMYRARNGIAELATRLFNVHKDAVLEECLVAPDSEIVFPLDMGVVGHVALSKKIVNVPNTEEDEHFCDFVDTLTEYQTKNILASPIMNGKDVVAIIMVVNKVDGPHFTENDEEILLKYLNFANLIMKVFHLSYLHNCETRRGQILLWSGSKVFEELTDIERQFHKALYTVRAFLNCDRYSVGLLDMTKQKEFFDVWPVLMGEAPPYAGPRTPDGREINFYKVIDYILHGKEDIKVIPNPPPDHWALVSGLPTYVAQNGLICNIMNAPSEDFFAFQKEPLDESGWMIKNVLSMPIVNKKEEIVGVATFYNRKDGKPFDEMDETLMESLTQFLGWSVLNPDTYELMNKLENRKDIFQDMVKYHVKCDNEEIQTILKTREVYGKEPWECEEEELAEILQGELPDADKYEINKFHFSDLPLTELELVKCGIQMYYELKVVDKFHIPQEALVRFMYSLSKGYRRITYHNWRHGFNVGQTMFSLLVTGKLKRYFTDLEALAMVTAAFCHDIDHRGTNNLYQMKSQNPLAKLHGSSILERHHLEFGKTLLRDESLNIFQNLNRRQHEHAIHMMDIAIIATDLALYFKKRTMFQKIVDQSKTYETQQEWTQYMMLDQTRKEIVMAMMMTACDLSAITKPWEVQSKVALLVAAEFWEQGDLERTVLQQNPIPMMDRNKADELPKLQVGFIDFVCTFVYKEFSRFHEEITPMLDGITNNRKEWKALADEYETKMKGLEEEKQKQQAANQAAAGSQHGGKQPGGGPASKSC
T2 sequence (P23439 2-850): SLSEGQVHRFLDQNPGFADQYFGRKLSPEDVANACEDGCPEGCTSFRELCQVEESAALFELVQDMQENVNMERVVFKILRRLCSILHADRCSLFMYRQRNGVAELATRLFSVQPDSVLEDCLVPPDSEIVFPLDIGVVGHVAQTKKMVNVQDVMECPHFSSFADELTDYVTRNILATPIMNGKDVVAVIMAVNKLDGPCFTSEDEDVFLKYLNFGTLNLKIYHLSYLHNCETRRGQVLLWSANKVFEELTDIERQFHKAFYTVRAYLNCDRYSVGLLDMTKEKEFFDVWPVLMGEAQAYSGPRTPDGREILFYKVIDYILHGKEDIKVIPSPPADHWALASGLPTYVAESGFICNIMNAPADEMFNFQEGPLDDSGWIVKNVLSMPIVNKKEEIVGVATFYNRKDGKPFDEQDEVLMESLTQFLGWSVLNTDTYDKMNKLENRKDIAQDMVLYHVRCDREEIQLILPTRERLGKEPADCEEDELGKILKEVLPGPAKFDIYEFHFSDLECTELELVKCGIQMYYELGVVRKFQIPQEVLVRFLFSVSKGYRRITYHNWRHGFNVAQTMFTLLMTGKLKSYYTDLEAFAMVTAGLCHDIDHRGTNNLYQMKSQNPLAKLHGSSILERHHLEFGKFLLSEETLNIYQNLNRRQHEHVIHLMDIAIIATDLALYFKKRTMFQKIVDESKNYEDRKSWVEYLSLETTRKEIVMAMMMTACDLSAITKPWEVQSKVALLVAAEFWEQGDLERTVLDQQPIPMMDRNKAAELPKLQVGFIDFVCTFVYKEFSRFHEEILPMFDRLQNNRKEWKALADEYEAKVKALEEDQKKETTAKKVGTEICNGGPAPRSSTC
T2 sequence (P04972 1-87 partner): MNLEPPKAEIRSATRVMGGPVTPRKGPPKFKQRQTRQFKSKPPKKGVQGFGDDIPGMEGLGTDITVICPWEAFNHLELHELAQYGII
Source text: as §1

[2] = system: rat embryonic motoneuron cells; assay: Apoptosis induced by elimination of BDNF in primary motoneuron cultures; assay type: cell-based; conditions: BDNF deprivation; concentration of 1 mM
Procedure: This test was carried out according to the protocol described by Estevez A. G. et al. (J. Neurosci. 1998, 18(3), 923-931). Briefly, when primary cultures of rat embryonic motoneuron cells are deprived of brain-derived neurotrophic factor (BDNF), an induction of neuronal nitric oxide synthase (NOS) was observed, resulting in the gradual death of the neurons by apoptosis: between 18 and 24 hours after having realized the biological preparation, more than 60% of the neurons die. In this model of induced apoptosis, the compound sodium 4-[[1-(oxo)-3-(4-oxopyrazolo[1,5-a]-1,3,5-triazin-8-yl)propyl]amino]benzoate (Ia5) protects more than 70% of the neurons at a concentration of 1 mM.

motoneurons = assay: Motoneuron apoptosis induced by peroxynitrite; assay type: cell-based; conditions: concentration of 1 mM
Procedure: This test was carried out according to the protocol described by Cassina P. et al. (J. Neurosci. Res. 2002 67(1): 21-9). Briefly, the oxidative stress mediated by nitric oxide and its toxic metabolite, peroxynitrite, has been associated with motoneuron degeneration, in particular in amyotrophic lateral sclerosis. The astrocytes of the spinal cord respond to extracellular concentrations of peroxynitrite by adopting a phenotype which is cytotoxic for the motoneurons. In this model of apoptosis induced by peroxynitrite, the compound sodium 4-[[1-(oxo)-3-(4-oxopyrazolo[1,5-a]-1,3,5-triazin-8-yl)propyl]amino]benzoate (Ia5) protects more than 60% of the neurons at a concentration of 1 mM.

[3] = system: neurons cultured from fetal rat brain cortex; assay: Neurite development in primary neuron cultures from fetal rat brain cortex; assay type: cell-based
Procedure: FIG. 1 represents the effect of the molecule Ia5 on neurons in culture. The neurons are cultured in Neurobasal medium from fetal rat brain cortex according to the procedure described in example 4 and are photographed without staining 17 days after being placed in culture. Culture A is a control culture without compound. The molecule Ia5 was added to culture B on the 8th day after the placing in culture, at a concentration of 50 μM.
Compounds according to the invention were evaluated for their neurotrophic properties. The idea is therefore to observe the behavior of a neuron cell culture in the absence and presence of such molecules. The molecule called Ia5 used during this example is a molecule having the general structure Ic1, where n=2 and m=0, in the form of a sodium salt.
The adult animals are mated and the female rats are separated the following day. After 16 days, the gestating rats undergo a cesarean and the fetuses are placed in a Petri dish 100 mm in diameter. They are transferred, under a laminar flow hood, into sterile medium. The fetuses are isolated by units and are dissected under a binocular magnifying lens in sterile medium. The cerebral cortex is isolated and placed in a tube containing Neurobasal medium without antibiotic. […] The cells are counted using a Mallassez hematometer in the presence of trypan blue in order to determine the cell viability. […]

SMILES: C[C@@H]1C[C@H]2[C@@H]3CCC4=CC(=O)C=C[C@]4(C)[C@@]3(F)[C@@H](O)C[C@]2(C)[C@@]1(O)C(=O)CO [dexamethasone]
IC50 (TNFα): 4.6 µM

SMILES: CCCOc1ccccc1-c1nc2nn[nH]c2c(=O)[nH]1 [zaprinast]
IC50 (PDE6 (bovine)): 0.38 µM

SMILES: O=C(CCc1cnn2c(=O)[nH]cnc12)Nc1ccc(C(=O)[O-])cc1.[Na+] [Ia5, Sodium 4-[[1-(oxo)-3-(4-oxopyrazolo[1,5-a]-1,3,5-triazin-8-yl)propyl]amino]benzoate]
neurons protected [2]: more than 70%
neurons protected (motoneurons): more than 60%
neurite morphology in culture B compared with control A (FIG. 1) ([3]; 50 μM added on the 8th day, photographed 17 days after being placed in culture): thickening and an elongation of the neurites
neurite development compared with control cells ([3]; primary fetal rat cortex neurons, test molecule at 0.1, 1 and 10 μmol/l): greater neurite development than in the cells acting as control

Second part, the compound after the results:

melting point: 142 to 144 °C
SMILES: CCCc1nc(N(C)c2ccccc2)n2ncc(C(O)c3ccoc3)c2n1 (stereo not shown) [Ib15, 8-[(3-Furyl)(hydroxy)methyl]-4-(N-methyl-N-phenylamino)-2-n-propylpyrazolo[1,5-a]-1,3,5-triazine]

IC50 (PDE1 (bovine)): 2.9 µM
SMILES: COCc1nc2c([nH]1)c(=O)n(C)c(=O)n2CC(C)C [8-methoxy-IBMX]

melting point: 150 to 152 °C
SMILES: CCCc1nc(N(C)c2ccccc2)n2ncc(C(O)c3cccs3)c2n1 (stereo not shown) [Ib18, 8-[(Hydroxy)(2-thienyl)methyl]-4-(N-methyl-N-phenylamino)-2-n-propylpyrazolo[1,5-a]-1,3,5-triazine]

IC50 [1]: 2.1 µM
SMILES: CCCCCC[C@@H]([C@@H](C)O)n1cnc2c(N)ncnc21 (racemic) [EHNA]
